Each block holds one molecule with its values, some of them ahead of it.
Tests used:
Type in all cases: biochemical
HDAC = HDAC fluorimetric assay kit (HeLa nuclear extract); details: read-out: HDAC IC50 grade
Experimental: HDAC inhibitors were screened using an HDAC fluorimetric assay kit (AK-500, Biomol, Plymouth Meeting, Pa.). […] Each assay was setup as follows: Defrosted all kit components and kept on ice until use. Diluted HeLa nuclear extract 1:29 in assay buffer (50 mM Tris/Cl, pH 8.0, 137 mM NaCl, 2.7 mM KCl, 1 mM MgCl2). Prepared dilutions of Trichostatin A (TSA, positive control) and tested compounds in assay buffer (5× of final concentration). Diluted Fluor de LysTM Substrate in assay buffer to 100 uM (50 fold=2× final). Diluted Fluor de LysTM developer concentrate 20-fold (e.g. 50 μl plus 950 μl assay buffer) in cold assay buffer. Second, diluted the 0.2 mM Trichostatin A 100-fold in the 1× Developer (e.g. 10 μl in 1 ml; final Trichostatin A concentration in the 1× Developer=2 μM; final concentration after addition to HDAC/Substrate reaction=1 μM). Added assay buffer, diluted trichostatin A or test inhibitor to appropriate wells of the microtiter plate. Added diluted HeLa extract or other HDAC sample to all wells except for negative controls. Allowed diluted Fluor de LysTM Substrate and the samples in the microtiter plate to equilibrate to assay temperature (e.g. 25 or 37° C. Initiated HDAC reactions by adding diluted substrate (25 μl) to each well and mixing thoroughly. Allowed HDAC reactions to proceed for 1 hour and then stopped them by addition of Fluor de LysTM Developer (50 μl). Incubated plate at room temperature (25° C.) for 10-15 min. Read samples in a microtiter-plate reading fluorimeter capable of excitation at a wavelength in the range 350-380 nm and detection of emitted light in the range 440-460 nm.
(§1) The following TABLE B lists compounds representative of the invention and their activity in HDAC, VEGFR2 and RAF assays.

B-Raf = target: T1, B-Raf (Homo sapiens, UniProt P15056); experiment: Raf kinase assay (B-Raf kit, MEK-1 substrate, dot blot); details: 250 μM ATP; read-out: B-Raf IC50 grade
T1 construct: purchased Upstate 17-359
T1 sequence (P15056 whole entry): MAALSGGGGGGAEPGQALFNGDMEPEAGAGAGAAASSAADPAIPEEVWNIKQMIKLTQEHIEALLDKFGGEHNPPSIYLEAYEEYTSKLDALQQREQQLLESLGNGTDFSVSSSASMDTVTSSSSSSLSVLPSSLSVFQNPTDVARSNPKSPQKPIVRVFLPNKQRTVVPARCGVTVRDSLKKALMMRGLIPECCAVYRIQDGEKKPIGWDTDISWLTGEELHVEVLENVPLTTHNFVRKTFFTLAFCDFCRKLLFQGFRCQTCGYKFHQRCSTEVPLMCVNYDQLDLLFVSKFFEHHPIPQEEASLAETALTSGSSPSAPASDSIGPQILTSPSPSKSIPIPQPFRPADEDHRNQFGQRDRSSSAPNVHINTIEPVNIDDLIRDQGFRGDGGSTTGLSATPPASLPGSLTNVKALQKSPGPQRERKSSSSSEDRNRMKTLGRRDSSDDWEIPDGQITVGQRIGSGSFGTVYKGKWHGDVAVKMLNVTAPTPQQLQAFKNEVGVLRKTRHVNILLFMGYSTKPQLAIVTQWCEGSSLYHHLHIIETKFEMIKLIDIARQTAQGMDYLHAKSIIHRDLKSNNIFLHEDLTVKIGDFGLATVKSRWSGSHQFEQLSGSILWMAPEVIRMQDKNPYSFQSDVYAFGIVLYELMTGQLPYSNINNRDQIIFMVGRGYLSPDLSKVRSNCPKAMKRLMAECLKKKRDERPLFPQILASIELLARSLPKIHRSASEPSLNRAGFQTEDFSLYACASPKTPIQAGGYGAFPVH
Experimental: (§2) The Raf kinase assay was performed by following the protocol of Raf kinase assay kit (B-Raf, Upstate, catalog# 17-359; C-Raf, Upstate, catalog# 17-360) with modifications. Briefly, assay buffer, ATP, substrate and Raf kinase were mixed in a 96 well assay plate. The final kinase assay mixture contained 20 mM MOPS, pH7.2, 25 mM β-glycerol phosphate, 5 mM EGTA, 1 mM sodium orthovanadate, 1 mM DTT, 250 μM ATP and 37.5 mM magnesium chloride, 0.1 μg/well of Raf kinase, and 1 μg/well of MEK-1 substrate protein. Assay samples were incubated for 30 min at room temperature. The kinase reaction was stopped by adding EDTA, pH8 to a final concentration of 25 mM. A 10 μl of the reaction sample was spotted onto nitrocellulose filter and dot blot was performed by adding 1 μg/ml of anti-phospho-MEK-1 antibody in the blocking solution (Licor Bioscience, catalogue # 927-40000). The nitrocellulose filter was subsequently incubated with secondary IRDye 800CW goat anti-rabbit antibody (Licor Bioscience, catalogue # 926-32211) before reading the signal on an Odyssey imager (Licor Bioscience).
as §1

C-Raf = C-Raf (Homo sapiens, UniProt P04049); experiment: Raf kinase assay (C-Raf kit, MEK-1 substrate, dot blot); details: 250 μM ATP; read-out: C-Raf IC50 grade
Sequence of C-Raf (P04049 whole entry Y340D/Y341D, form open): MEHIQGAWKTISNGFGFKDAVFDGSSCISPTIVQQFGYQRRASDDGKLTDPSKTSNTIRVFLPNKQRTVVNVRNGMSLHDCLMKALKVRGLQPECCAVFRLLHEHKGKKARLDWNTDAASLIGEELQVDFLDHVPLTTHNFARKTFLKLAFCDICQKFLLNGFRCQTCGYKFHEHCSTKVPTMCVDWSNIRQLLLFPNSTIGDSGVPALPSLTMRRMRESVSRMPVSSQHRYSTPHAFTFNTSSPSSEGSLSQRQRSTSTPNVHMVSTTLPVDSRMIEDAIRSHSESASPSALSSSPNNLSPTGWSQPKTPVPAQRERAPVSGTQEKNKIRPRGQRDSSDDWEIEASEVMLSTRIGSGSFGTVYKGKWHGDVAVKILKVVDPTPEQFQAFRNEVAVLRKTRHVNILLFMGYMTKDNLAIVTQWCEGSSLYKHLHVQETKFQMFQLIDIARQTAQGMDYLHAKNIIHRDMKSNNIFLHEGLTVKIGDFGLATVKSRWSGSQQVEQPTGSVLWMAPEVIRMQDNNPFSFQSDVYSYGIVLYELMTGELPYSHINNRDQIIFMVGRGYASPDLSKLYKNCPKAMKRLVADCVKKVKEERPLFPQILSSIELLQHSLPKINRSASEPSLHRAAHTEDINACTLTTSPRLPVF
Experimental: as §2, §1

VEGFR2 = target: T2, VEGFR2 (Homo sapiens, UniProt P35968); experiment: HTScan VEGFR2 Kinase Assay (DELFIA); details: 200 μM ATP; read-out: VEGFR2 IC50 grade
T2 construct: GST (N); His6 (N); Thrombin cleavage site (N); purchased Cell Signaling Technologies; host or cells: baculovirus expression system
T2 sequence (P35968 805-1356): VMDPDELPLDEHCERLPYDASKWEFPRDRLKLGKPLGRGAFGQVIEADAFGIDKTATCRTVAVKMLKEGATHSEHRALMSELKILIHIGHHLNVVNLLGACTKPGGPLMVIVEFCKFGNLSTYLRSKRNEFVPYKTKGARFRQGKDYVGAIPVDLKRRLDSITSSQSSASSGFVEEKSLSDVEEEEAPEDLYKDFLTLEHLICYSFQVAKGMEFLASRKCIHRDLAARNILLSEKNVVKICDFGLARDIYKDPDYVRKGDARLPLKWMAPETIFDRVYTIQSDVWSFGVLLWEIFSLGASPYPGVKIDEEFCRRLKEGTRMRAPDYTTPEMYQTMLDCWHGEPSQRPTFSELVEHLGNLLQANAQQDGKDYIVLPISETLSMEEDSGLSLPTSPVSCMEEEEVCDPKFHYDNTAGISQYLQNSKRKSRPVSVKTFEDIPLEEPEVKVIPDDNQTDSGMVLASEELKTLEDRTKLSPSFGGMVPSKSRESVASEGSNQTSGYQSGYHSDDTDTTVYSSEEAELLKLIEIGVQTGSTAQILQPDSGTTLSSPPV
Experimental: The ability of compounds to inhibit VEGFR2 kinase activity was assayed using HTScan™ VEGFR2 Kinase Assay Kits (Cell Signaling Technologies, Danvers, Mass.). […] The protein was purified by one-step affinity chromatography using glutathione-agarose.
Immediately transfer enzyme from −80° C. to ice. Allowed enzyme to thaw on ice. […] Returned immediately to ice. […] Incubated reaction plate at room temperature for 30 minutes. […] Added 100 μl/well primary antibody. Incubated at room temperature for 60 minutes. […] Added 100 μl/well diluted antibody. Incubated at room temperature for 30 minutes. […] Incubated at room temperature for 5 minutes.
as §1

PDGFRβ = PDGFRβ (Homo sapiens, UniProt P09619); experiment: PDGFRβ kinase inhibition (Table B); details: read-out: PDGFRβ IC50 grade
Sequence of PDGFRβ (P09619 33-1106, species assumed): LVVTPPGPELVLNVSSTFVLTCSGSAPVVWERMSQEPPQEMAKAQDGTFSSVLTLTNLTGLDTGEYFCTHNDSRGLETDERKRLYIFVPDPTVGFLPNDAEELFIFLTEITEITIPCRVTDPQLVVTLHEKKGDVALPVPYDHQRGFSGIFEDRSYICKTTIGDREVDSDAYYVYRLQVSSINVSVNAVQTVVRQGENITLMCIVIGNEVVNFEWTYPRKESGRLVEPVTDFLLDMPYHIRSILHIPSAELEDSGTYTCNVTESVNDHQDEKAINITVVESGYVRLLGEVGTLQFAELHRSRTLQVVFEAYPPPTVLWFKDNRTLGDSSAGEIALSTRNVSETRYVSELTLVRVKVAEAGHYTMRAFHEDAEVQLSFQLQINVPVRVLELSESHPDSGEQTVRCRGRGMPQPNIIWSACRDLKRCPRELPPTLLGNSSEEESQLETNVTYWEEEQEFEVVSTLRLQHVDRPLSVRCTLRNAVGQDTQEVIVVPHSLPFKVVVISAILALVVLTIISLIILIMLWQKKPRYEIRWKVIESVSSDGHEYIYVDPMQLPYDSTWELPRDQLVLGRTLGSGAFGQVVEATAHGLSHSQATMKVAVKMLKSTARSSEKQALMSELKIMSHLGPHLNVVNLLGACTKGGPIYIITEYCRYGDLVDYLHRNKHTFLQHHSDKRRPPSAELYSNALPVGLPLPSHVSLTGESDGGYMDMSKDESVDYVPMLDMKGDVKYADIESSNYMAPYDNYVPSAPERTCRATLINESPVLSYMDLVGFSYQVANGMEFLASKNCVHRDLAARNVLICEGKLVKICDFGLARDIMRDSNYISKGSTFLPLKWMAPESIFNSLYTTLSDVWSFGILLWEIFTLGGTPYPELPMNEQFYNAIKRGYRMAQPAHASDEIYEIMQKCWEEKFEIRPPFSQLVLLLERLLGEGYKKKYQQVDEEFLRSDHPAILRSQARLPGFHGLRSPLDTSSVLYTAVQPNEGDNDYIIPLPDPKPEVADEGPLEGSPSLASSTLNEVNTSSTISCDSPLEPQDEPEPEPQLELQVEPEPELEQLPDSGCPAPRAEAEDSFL

cKit = cKit (Homo sapiens, UniProt P10721); experiment: cKit kinase inhibition (Table B); details: read-out: cKit IC50 grade
Sequence of cKit (P10721 26-976): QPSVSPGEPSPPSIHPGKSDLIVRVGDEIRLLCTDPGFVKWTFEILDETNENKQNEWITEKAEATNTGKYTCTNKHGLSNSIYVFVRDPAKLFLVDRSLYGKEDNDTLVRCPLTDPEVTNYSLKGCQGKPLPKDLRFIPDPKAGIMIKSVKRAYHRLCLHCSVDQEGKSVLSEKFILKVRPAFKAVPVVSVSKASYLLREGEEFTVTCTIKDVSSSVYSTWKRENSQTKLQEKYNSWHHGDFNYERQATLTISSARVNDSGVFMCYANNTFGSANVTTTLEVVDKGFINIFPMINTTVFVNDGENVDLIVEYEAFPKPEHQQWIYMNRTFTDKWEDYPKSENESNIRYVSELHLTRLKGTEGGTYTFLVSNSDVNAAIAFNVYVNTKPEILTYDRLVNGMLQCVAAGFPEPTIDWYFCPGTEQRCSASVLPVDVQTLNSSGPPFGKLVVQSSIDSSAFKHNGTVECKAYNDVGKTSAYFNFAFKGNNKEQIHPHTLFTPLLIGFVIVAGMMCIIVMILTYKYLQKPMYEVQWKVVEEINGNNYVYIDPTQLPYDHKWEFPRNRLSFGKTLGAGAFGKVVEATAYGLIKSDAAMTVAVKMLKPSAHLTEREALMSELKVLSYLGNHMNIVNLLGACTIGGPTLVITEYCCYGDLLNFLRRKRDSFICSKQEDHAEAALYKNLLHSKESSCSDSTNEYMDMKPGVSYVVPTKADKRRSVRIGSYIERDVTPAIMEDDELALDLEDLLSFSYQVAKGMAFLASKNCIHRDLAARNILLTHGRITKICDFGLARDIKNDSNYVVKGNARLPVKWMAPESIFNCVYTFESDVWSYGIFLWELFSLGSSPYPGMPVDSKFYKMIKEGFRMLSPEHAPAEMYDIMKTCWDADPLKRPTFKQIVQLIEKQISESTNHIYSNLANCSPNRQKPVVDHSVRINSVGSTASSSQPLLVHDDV

IC50 (HDAC): 100 to 1000 nM
Structure (SMILES): O=C(CCCCCCNC(=O)c1cc(Oc2ccc(NC(=O)Nc3ccc(Cl)c(C(F)(F)F)c3)cc2)ccn1)NO [Compound 6, 4-(4-(3-(4-chloro-3-(trifluoromethyl)phenyl)ureido)phenoxy)-N-(7-(hydroxyamino)-7-oxoheptyl)picolinamide]

IC50 (HDAC): 1000 to 10000 nM | IC50 (VEGFR2): 100 to 1000 nM | IC50 (PDGFRβ): 100 to 1000 nM | IC50 (cKit): < 100 nM
Structure (SMILES): O=C(CCCCCCCNC(=O)c1cc(Oc2ccc(NC(=O)Nc3ccc(Cl)c(C(F)(F)F)c3)cc2)ccn1)NO [Compound 7, 4-(4-(3-(4-chloro-3-(trifluoromethyl)phenyl)ureido)phenoxy)-N-(8-(hydroxyamino)-8-oxooctyl)picolinamide]

IC50 (HDAC): 100 to 1000 nM | IC50 (VEGFR2): < 100 nM
Structure (SMILES): O=C(CCCC(=O)Nc1cc(Oc2ccc(NC(=O)Nc3ccc(Cl)c(C(F)(F)F)c3)cc2)ccn1)NO [Compound 9, 1-(4-chloro-3-(trifluoromethyl)phenyl)-3-(4-(2-(5-(hydroxyamino)-5-oxopentanamido)pyridin-4-yloxy)phenyl)urea]

IC50 (HDAC): 100 to 1000 nM
Structure (SMILES): O=C(CCCCCNCc1cc(Oc2ccc(NC(=O)Nc3ccc(Cl)c(C(F)(F)F)c3)cc2)ccn1)NO [Compound 16, 6-((4-(4-(3-(4-chloro-3-(trifluoromethyl)phenyl)ureido)phenoxy)pyridin-2-yl)methylamino)-N-hydroxyhexanamide]

IC50 (HDAC): 100 to 1000 nM | IC50 (VEGFR2): 100 to 1000 nM
Structure (SMILES): O=C(CCCCCCNCc1cc(Oc2ccc(NC(=O)Nc3ccc(Cl)c(C(F)(F)F)c3)cc2)ccn1)NO [Compound 17, 7-((4-(4-(3-(4-chloro-3-(trifluoromethyl)phenyl)ureido)phenoxy)pyridin-2-yl)methylamino)-N-hydroxyheptanamide]

IC50 (HDAC): 100 to 1000 nM | IC50 (VEGFR2): 100 to 1000 nM
Structure (SMILES): O=C(CCCCCCCNCc1cc(Oc2ccc(NC(=O)Nc3ccc(Cl)c(C(F)(F)F)c3)cc2)ccn1)NO [Compound 18, 8-((4-(4-(3-(4-Chloro-3-(trifluoromethyl)phenyl)ureido)phenoxy)pyridin-2-yl)methylamino)-N-hydroxyoctanamide]

IC50 (HDAC): 100 to 1000 nM | IC50 (VEGFR2): < 100 nM | IC50 (PDGFRβ): 100 to 1000 nM | IC50 (cKit): < 100 nM
Structure (SMILES): O=C(CCCCC(=O)NCc1cc(Oc2ccc(NC(=O)Nc3ccc(Cl)c(C(F)(F)F)c3)cc2)ccn1)NO [Compound 21, N^1-((4-(4-(3-(4-chloro-3(trifluoromethyl)phenyl)ureido)phenoxy)pyridin-2-yl)methyl)-N^6-hydroxyadipamide]

IC50 (HDAC): 100 to 1000 nM | IC50 (VEGFR2): < 100 nM | IC50 (PDGFRβ): 100 to 1000 nM | IC50 (cKit): < 100 nM
Structure (SMILES): O=C(CCCCCCC(=O)NCc1cc(Oc2ccc(NC(=O)Nc3ccc(Cl)c(C(F)(F)F)c3)cc2)ccn1)NO [Compound 23, N^1-((4-(4-(3-(4-chloro-3(trifluoromethyl)phenyl)ureido)phenoxy)pyridin-2-yl)methyl)-N^8-hydroxyoctanediamide]

IC50 (HDAC): 1000 to 10000 nM
Structure (SMILES): O=C(CCCn1ccc(Oc2ccc(NC(=O)Nc3ccc(Cl)c(C(F)(F)F)c3)cc2)cc1=O)NO [Compound 25]

IC50 (HDAC): 1000 to 10000 nM
Structure (SMILES): O=C(CCCOc1cc(Oc2ccc(NC(=O)Nc3ccc(Cl)c(C(F)(F)F)c3)cc2)ccn1)NO [Compound 31]

IC50 (HDAC): 100 to 1000 nM | IC50 (VEGFR2): < 100 nM
Structure (SMILES): O=C(CCCCOc1cc(Oc2ccc(NC(=O)Nc3ccc(Cl)c(C(F)(F)F)c3)cc2)ccn1)NO [Compound 32]

IC50 (HDAC): 1000 to 10000 nM
Structure (SMILES): O=C(CCCCCOc1cc(Oc2ccc(NC(=O)Nc3ccc(Cl)c(C(F)(F)F)c3)cc2)ccn1)NO [Compound 33]

The next lines start with the molecule.

Structure (SMILES): C[C@@H](NC(=O)c1cc(Oc2ccc(NC(=O)Nc3ccc(Cl)c(C(F)(F)F)c3)cc2)ccn1)C(=O)NO [Compound 1, (R)-4-(4-(3-(4-chloro-3-(trifluoromethyl)phenyl)ureido)phenoxy)-N-(1-(hydroxyamino)-1-oxopropan-2-yl)picolinamide]
IC50 (HDAC): 1000 to 10000 nM

Structure (SMILES): O=C(CCCNC(=O)c1cc(Oc2ccc(NC(=O)Nc3ccc(Cl)c(C(F)(F)F)c3)cc2)ccn1)NO [Compound 3, 4-(4-(3-(4-chloro-3-(trifluoromethyl)phenyl)ureido)phenoxy)-N-(4-(hydroxyamino)-4-oxobutyl)picolinamide]
IC50 (HDAC): 1000 to 10000 nM

Structure (SMILES): O=C(CCCCCNC(=O)c1cc(Oc2ccc(NC(=O)Nc3ccc(Cl)c(C(F)(F)F)c3)cc2)ccn1)NO [Compound 5, 4-(4-(3-(4-Chloro-3-(trifluoromethyl)phenyl)ureido)phenoxy)-N-(6-(hydroxyamino)-6-oxohexyl)picolinamide]
IC50 (HDAC): 100 to 1000 nM | IC50 (B-Raf): 1000 to 10000 nM | IC50 (C-Raf): 1000 to 10000 nM | IC50 (VEGFR2): < 100 nM | IC50 (PDGFRβ): 100 to 1000 nM | IC50 (cKit): < 100 nM

Structure (SMILES): O=C(CCCCC(=O)Nc1cc(Oc2ccc(NC(=O)Nc3ccc(Cl)c(C(F)(F)F)c3)cc2)ccn1)NO [Compound 10, 1-(4-chloro-3-(trifluoromethyl)phenyl)-3-(4-(2-(6-(hydroxyamino)-6-oxohexanamido)pyridin-4-yloxy)phenyl)urea]
IC50 (HDAC): 1000 to 10000 nM

Structure (SMILES): O=C(CCCCCCC(=O)Nc1cc(Oc2ccc(NC(=O)Nc3ccc(Cl)c(C(F)(F)F)c3)cc2)ccn1)NO [Compound 12, 1-(4-chloro-3-(trifluoromethyl)phenyl)-3-(4-(2-(8-(hydroxyamino)-8-oxooctanamido)pyridin-4-yloxy)phenyl)urea]
IC50 (HDAC): 100 to 1000 nM | IC50 (C-Raf): < 100 nM | IC50 (VEGFR2): < 100 nM | IC50 (PDGFRβ): < 100 nM | IC50 (cKit): < 100 nM

Structure (SMILES): O=C(CCC(=O)NCc1cc(Oc2ccc(NC(=O)Nc3ccc(Cl)c(C(F)(F)F)c3)cc2)ccn1)NO [Compound 19, N^1-((4-(4-(3-(4-chloro-3-(trifluoromethyl)phenyl)ureido)phenoxy)pyridin-2-yl)methyl)-N^4-hydroxysuccinamide]
IC50 (HDAC): 100 to 1000 nM

Structure (SMILES): O=C(CCCC(=O)NCc1cc(Oc2ccc(NC(=O)Nc3ccc(Cl)c(C(F)(F)F)c3)cc2)ccn1)NO [Compound 20, N^1-((4-(4-(3-(4-chloro-3(trifluoromethyl)phenyl)ureido)phenoxy)pyridin-2-yl)methyl)-N^5-hydroxyglutaramide]
IC50 (HDAC): 100 to 1000 nM | IC50 (VEGFR2): < 100 nM

Structure (SMILES): O=C(CCCCn1ccc(Oc2ccc(NC(=O)Nc3ccc(Cl)c(C(F)(F)F)c3)cc2)cc1=O)NO [Compound 26]
IC50 (HDAC): 1000 to 10000 nM

Structure (SMILES): O=C(CCCCCn1ccc(Oc2ccc(NC(=O)Nc3ccc(Cl)c(C(F)(F)F)c3)cc2)cc1=O)NO [Compound 27]
IC50 (HDAC): 100 to 1000 nM

Structure (SMILES): O=C(CCCCCCn1ccc(Oc2ccc(NC(=O)Nc3ccc(Cl)c(C(F)(F)F)c3)cc2)cc1=O)NO [Compound 28]
IC50 (HDAC): 100 to 1000 nM

Structure (SMILES): O=C(CCCCCCOc1cc(Oc2ccc(NC(=O)Nc3ccc(Cl)c(C(F)(F)F)c3)cc2)ccn1)NO [Compound 34]
IC50 (HDAC): 100 to 1000 nM

Structure (SMILES): O=C(Nc1ccc(Oc2ccnc(C(=O)NO)c2)cc1)Nc1ccc(Cl)c(C(F)(F)F)c1 [Compound 36, 4-(4-(3-(4-chloro-3-(trifluoromethyl)phenyl)ureido)phenoxy)-N-hydroxypicolinamide]
IC50 (HDAC): > 10000 nM | IC50 (VEGFR2): 1000 to 10000 nM

Reference: patent publication US20080234332A1, “RAF KINASE INHIBITORS CONTAINING A ZINC BINDING MOIETY” (priority 2007, published 2008)
